Laboratory results reported in PubChem BioAssay AID1259411 (Chemical Carcinogenesis Research Information System (CCRIS), 2018).
Calls of active or inactive are those of the source. How the calls were made is not given here.

System: rodent carcinogenicity bioassays, tumor incidence
Test: CCRIS carcinogenicity studies
Summary of the method: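 Archive of carcinogenicity, mutagenicity, tumor promotion and tumor inhibition results drawn from journals, NCI reports and other sources, expert-reviewed; covers 1985-2011 and is no longer updated.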

Structure (SMILES): C=C(C)[C@H]1Cc2c(ccc3c2O[C@@H]2COc4cc(OC)c(OC)cc4[C@@H]2C3=O)O1
- carcinogen call (Species: MOUSE, Strain/Sex: B6C3F1/FEMALE, Route: ORAL, Dose: 0, 600, 1200 PPM IN DIET FOR 103 WK (STUDY DURATION: 105 WK), Dose: 0, 600, 1200 PPM IN DIET FOR 103 WK (STUDY DURATION: 105 WK)): inactive; negative
- carcinogen call (Species: MOUSE, Strain/Sex: B6C3F1/MALE, Route: ORAL, Dose: 0, 600, 1200 PPM IN DIET FOR 103 WK (STUDY DURATION: 105 WK), Dose: 0, 600, 1200 PPM IN DIET FOR 103 WK (STUDY DURATION: 105 WK)): inactive; negative
- carcinogen call (Species: RAT, Strain/Sex: F344/FEMALE, Route: ORAL, Dose: 0, 38, 75 PPM IN DIET FOR 103 WK (STUDY DURATION: 105 WK), Dose: 0, 38, 75 PPM IN DIET FOR 103 WK (STUDY DURATION: 105 WK)): inactive; negative
- carcinogen call (Species: RAT, Strain/Sex: F344/MALE, Route: ORAL, Dose: 0, 38, 75 PPM IN DIET FOR 103 WK (STUDY DURATION: 105 WK), Dose: 0, 38, 75 PPM IN DIET FOR 103 WK (STUDY DURATION: 105 WK), Tumor Site: Type of Lesion: PARATHYROID GLAND: ADENOMA): equivocal
- carcinogen call (Species: RAT, Strain/Sex: WISTAR/FEMALE, Route: INTRAPERITONEAL, Dose: 0, 1, 2 MG/KG IN SUNFLOWER OIL 5 D/WK FOR 8 WK (STUDY DURATION: 18 MO), Dose: 0, 1, 2 MG/KG IN SUNFLOWER OIL 5 D/WK FOR 8 WK (STUDY DURATION: 18 MO)): inactive; negative
- carcinogen call (Species: RAT, Strain/Sex: WISTAR/FEMALE, Route: INTRAPERITONEAL, Dose: 0, 1, 2 MG/KG IN SUNFLOWER OIL/CHLOROFORM (9:1) 5 D/WK FOR 8 WK (STUDY DURATION: 18 MO), Dose: 0, 1, 2 MG/KG IN SUNFLOWER OIL/CHLOROFORM (9:1) 5 D/WK FOR 8 WK (STUDY DURATION: 18 MO)): inactive; negative

Structure (SMILES): CCN(Cc1cccc(S(=O)(=O)O)c1)c1ccc(C(=C2C=CC(=[N+](CC)Cc3cccc(S(=O)(=O)O)c3)C=C2)c2ccccc2S(=O)(=O)[O-])cc1
- carcinogen call (Species: MOUSE, Strain/Sex: CD-1/FEMALE, Route: ORAL, Dose: 0, 0.5, 1.5, 5% IN DIET FOR 104 WK (STUDY DURATION: LIFETIME), Dose: 0, 0.5, 1.5, 5% IN DIET FOR 104 WK (STUDY DURATION: LIFETIME)): inactive; negative
- carcinogen call (Species: MOUSE, Strain/Sex: CD-1/MALE, Route: ORAL, Dose: 0, 0.5, 1.5, 5% IN DIET FOR 104 WK (STUDY DURATION: LIFETIME), Dose: 0, 0.5, 1.5, 5% IN DIET FOR 104 WK (STUDY DURATION: LIFETIME)): inactive; negative
- carcinogen call (Species: MOUSE, Strain/Sex: ICR/FEMALE, Route: DERMAL, Dose: 0, 1 MG IN 0.1 ML DISTILLED WATER 2/WK FOR A MEAN TOTAL DOSE OF 128.8 MG (STUDY DURATION: 18 MO)): inactive; negative
- carcinogen call (Species: MOUSE, Strain/Sex: ICR/MALE, Route: DERMAL, Dose: 0, 1 MG IN 0.1 ML DISTILLED WATER 2/WK FOR A MEAN TOTAL DOSE OF 128.8 MG (STUDY DURATION: 18 MO)): inactive; negative
- carcinogen call (Species: RAT, Route: SUBCUTANEOUS, Tumor Site: Type of Lesion: INJECTION SITE): active; positive
- carcinogen call (Species: RAT, Strain/Sex: STRAIN-CD/FEMALE, Route: ORAL, Dose: 0, 0.1, 1, 2% IN DIET FOR 111 WK (PARENTS FED 0; 0.1; 1; 2% RESPECTIVELY IN DIET) (STUDY DURATION: LIFETIME), Dose: 0, 0.1, 1, 2% IN DIET FOR 111 WK (PARENTS FED 0; 0.1; 1; 2% RESPECTIVELY IN DIET) (STUDY DURATION: LIFETIME)): inactive; negative
- carcinogen call (Species: RAT, Strain/Sex: STRAIN-CD/MALE, Route: ORAL, Dose: 0, 0.1, 1, 2% IN DIET FOR 116 WK (PARENTS FED 0; 0.1; 1; 2% RESPECTIVELY IN DIET) (STUDY DURATION: LIFETIME), Dose: 0, 0.1, 1, 2% IN DIET FOR 116 WK (PARENTS FED 0; 0.1; 1; 2% RESPECTIVELY IN DIET) (STUDY DURATION: LIFETIME)): inactive; negative

Structure (SMILES): O=P1(NCCCl)OCCCN1CCCl (configuration not stated)
- carcinogen call (Species: MOUSE, Strain/Sex: B6C3F1/FEMALE, Route: INTRAPERITONEAL, Dose: 0, 10, 20 MG/KG IN BUFFERED SALINE 3/WK FOR 52 WK (STUDY DURATION: 79-80 WK), Dose: 0, 10, 20 MG/KG IN BUFFERED SALINE 3/WK FOR 52 WK (STUDY DURATION: 79-80 WK), Tumor Site: Type of Lesion: LYMPHATIC SYSTEM: MALIGNANT LYMPHOMA): active; positive
- carcinogen call (Species: MOUSE, Strain/Sex: B6C3F1/MALE, Route: INTRAPERITONEAL, Dose: 0, 10, 20 MG/KG IN BUFFERED SALINE 3/WK FOR 52 WK (STUDY DURATION: 79-80 WK), Dose: 0, 10, 20 MG/KG IN BUFFERED SALINE 3/WK FOR 52 WK (STUDY DURATION: 79-80 WK)): inactive; negative
- carcinogen call (Species: MOUSE, Strain/Sex: STRAIN-A/MALE,FEMALE, Route: INTRAPERITONEAL, Dose: 0, 18.8, 47 MG/KG IN WATER 3/WK FOR 8 WK, Dose: 0, 18.8, 47 MG/KG IN WATER 3/WK FOR 8 WK, Tumor Site: Type of Lesion: LUNG): active; positive
- carcinogen call (Species: RAT, Strain/Sex: SPRAGUE-DAWLEY/FEMALE, Route: INTRAPERITONEAL, Dose: 0, 6, 12 MG/KG IN BUFFERED SALINE 3/WK FOR 52 WK (STUDY DURATION: 79-83 WK), Dose: 0, 6, 12 MG/KG IN BUFFERED SALINE 3/WK FOR 52 WK (STUDY DURATION: 79-83 WK), Tumor Site: Type of Lesion: MAMMARY GLAND: CYSTADENOMA OR CYSTADENOCARCINOMA, UTERUS: LEIOMYOSARCOMA;ADRENAL GLAND: CORTICAL ADENOMA, Tumor Site: Type of Lesion: MAMMARY GLAND: CYSTADENOMA OR CYSTADENOCARCINOMA, UTERUS: LEIOMYOSARCOMA;ADRENAL GLAND: CORTICAL ADENOMA): active; positive
- carcinogen call (Species: RAT, Strain/Sex: SPRAGUE-DAWLEY/MALE, Route: INTRAPERITONEAL, Dose: 0, 6, 12 MG/KG IN BUFFERED SALINE 3/WK FOR 52 WK (STUDY DURATION: 79-83 WK), Dose: 0, 6, 12 MG/KG IN BUFFERED SALINE 3/WK FOR 52 WK (STUDY DURATION: 79-83 WK)): inactive; negative

Structure (SMILES): N#Cc1ccc(C/C(=N\NC(=O)Nc2ccc(OC(F)(F)F)cc2)c2cccc(C(F)(F)F)c2)cc1
- carcinogen call (Species: Mouse, Strain/Sex: CD-1/Female (65/Group), Route: Oral, Dose: 0 (aqueous carboxymethylcellulose), 100, 250, 1000 mg/kg/day of 96.3% metaflumizone by gavage for 18 mo, study duration, Dose: 0 (aqueous carboxymethylcellulose), 100, 250, 1000 mg/kg/day of 96.3% metaflumizone by gavage for 18 mo, study duration): inactive; negative
- carcinogen call (Species: Mouse, Strain/Sex: CD-1/Male (65/Group), Route: Oral, Dose: 0 (aqueous carboxymethylcellulose), 100, 250, 1000 mg/kg/day of 96.3% metaflumizone by gavage for 18 mo, study duration, Dose: 0 (aqueous carboxymethylcellulose), 100, 250, 1000 mg/kg/day of 96.3% metaflumizone by gavage for 18 mo, study duration): inactive; negative
- carcinogen call (Species: Rat, Strain/Sex: Sprague-Dawley/Female (80/Group), Route: Oral, Dose: 0 (aqueous carboxymethylcellulose), 30, 60, 300 mg/kg/day (adjusted to 200 mg after 2 weeks of treatment) of 96.3% metaf, Dose: 0 (aqueous carboxymethylcellulose), 30, 60, 300 mg/kg/day (adjusted to 200 mg after 2 weeks of treatment) of 96.3% metaf): inactive; negative
- carcinogen call (Species: Rat, Strain/Sex: Sprague-Dawley/Male (80/Group), Route: Oral, Dose: 0 (aqueous carboxymethylcellulose), 30, 60, 300 mg/kg/day of 96.3% metaflumizone by gavage for 24 mo, study duration 24, Dose: 0 (aqueous carboxymethylcellulose), 30, 60, 300 mg/kg/day of 96.3% metaflumizone by gavage for 24 mo, study duration 24): inactive; negative
